Experimental data from US11420973B2, “Amide substituted indole compounds useful as TLR inhibitors” (BRISTOL-MYERS SQUIBB COMPANY, priority 2017, dated 2022).
Where a name gives a salt, the structure may show the parent alone.

Tests used:
human TLR7 = human TLR7 (Homo sapiens (Human), UniProt Q9NYK1); test: TLR7 inhibition reporter assay (HEK-Blue SEAP reporter, gardiquimod stimulation); format: cell-based; settings: HEK-Blue cells overexpressing human TLR7, gardiquimod 7.5 μM
human TLR8 = human TLR8 (Homo sapiens (Human), UniProt Q9NR97); test: TLR8 inhibition reporter assay (HEK-Blue SEAP reporter, R848 stimulation); settings: read-out: TLR8 IC50; HEK-Blue cells overexpressing human TLR8, R848 15.9 μM, SEAP reporter;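 also: SEAP driven by IFN-β minimal promoter with NF-κB and AP-1 sites, 22 h incubation, compounds 0.05 nM–50 µM, inhibition scaled between agonist plus DMSO and reference inhibitor wells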
Chain of human TLR8 (Q9NR97 27-1041): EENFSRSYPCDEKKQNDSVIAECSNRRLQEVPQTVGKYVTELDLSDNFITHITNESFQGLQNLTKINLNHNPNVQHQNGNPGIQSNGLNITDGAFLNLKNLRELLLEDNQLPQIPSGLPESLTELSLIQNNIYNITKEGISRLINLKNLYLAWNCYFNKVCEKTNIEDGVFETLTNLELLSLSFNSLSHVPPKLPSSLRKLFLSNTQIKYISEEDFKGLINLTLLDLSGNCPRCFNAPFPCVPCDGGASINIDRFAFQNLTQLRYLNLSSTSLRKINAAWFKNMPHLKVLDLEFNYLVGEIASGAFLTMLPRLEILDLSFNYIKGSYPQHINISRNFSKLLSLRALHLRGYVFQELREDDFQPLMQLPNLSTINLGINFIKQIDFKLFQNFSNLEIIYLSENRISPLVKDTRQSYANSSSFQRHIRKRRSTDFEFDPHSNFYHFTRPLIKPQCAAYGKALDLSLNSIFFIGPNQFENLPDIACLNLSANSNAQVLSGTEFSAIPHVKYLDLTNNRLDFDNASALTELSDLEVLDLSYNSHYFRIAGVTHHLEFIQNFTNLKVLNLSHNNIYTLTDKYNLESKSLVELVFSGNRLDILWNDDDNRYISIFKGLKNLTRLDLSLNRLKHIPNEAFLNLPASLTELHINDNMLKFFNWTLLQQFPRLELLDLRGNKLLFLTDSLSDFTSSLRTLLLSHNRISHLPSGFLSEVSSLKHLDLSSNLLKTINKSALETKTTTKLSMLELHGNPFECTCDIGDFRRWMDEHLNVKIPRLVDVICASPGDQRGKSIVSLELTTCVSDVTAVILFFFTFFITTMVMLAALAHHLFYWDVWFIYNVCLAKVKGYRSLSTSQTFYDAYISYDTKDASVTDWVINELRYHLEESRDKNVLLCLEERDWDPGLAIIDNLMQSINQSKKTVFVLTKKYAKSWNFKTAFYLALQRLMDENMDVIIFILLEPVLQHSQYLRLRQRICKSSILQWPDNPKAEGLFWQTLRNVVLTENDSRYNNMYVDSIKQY
Method: (§1) HEK-Blue™-cells (Invivogen) overexpressing human TLR7, TLR8 or TLR9 receptors were used for screening inhibitors of these receptors using an inducible SEAP (secreted embryonic alkaline phosphatase) reporter gene under the control of the IFN-β minimal promoter fused to five NF-κB and AP-1-binding sites. Briefly, cells are seeded into Greiner 384 well plates (15000 cells per well for TLR7, 20,000 for TLR8 and 25,000 for TLR9) and then treated with test compounds in DMSO to yield a final dose response concentration range of 0.05 nM-50 μM. After a 30 minute compound pre-treatment at room temperature, the cells are then stimulated with a TLR7 ligand (gardiquimod at a final concentration of 7.5 μM), TLR8 ligand (R848 at a final concentration of 15.9 μM) or TLR9 ligand (ODN2006 at a final concentration of 5 nM) to activate NF-κB and AP-1 which induce the production of SEAP. After a 22 hour incubation at 37° C., 5% CO2, SEAP levels are determined with the addition of HEK-Blue™ Detection reagent (Invivogen), a cell culture medium that allows for detection of SEAP, according to manufacturer's specifications.

human TLR9 = human TLR9 (Homo sapiens (Human), UniProt Q9NR96); test: TLR9 inhibition reporter assay (HEK-Blue SEAP reporter, ODN2006 stimulation); settings: read-out: TLR9 IC50; HEK-Blue cells overexpressing human TLR9, ODN2006 5 nM, SEAP reporter;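 also: SEAP reporter under IFN-β minimal promoter with five NF-κB and AP-1 sites, 22 h incubation, compounds 0.05 nM–50 µM, inhibition relative to agonist plus DMSO versus known inhibitor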
Chain of human TLR9 (Q9NR96 26-1032): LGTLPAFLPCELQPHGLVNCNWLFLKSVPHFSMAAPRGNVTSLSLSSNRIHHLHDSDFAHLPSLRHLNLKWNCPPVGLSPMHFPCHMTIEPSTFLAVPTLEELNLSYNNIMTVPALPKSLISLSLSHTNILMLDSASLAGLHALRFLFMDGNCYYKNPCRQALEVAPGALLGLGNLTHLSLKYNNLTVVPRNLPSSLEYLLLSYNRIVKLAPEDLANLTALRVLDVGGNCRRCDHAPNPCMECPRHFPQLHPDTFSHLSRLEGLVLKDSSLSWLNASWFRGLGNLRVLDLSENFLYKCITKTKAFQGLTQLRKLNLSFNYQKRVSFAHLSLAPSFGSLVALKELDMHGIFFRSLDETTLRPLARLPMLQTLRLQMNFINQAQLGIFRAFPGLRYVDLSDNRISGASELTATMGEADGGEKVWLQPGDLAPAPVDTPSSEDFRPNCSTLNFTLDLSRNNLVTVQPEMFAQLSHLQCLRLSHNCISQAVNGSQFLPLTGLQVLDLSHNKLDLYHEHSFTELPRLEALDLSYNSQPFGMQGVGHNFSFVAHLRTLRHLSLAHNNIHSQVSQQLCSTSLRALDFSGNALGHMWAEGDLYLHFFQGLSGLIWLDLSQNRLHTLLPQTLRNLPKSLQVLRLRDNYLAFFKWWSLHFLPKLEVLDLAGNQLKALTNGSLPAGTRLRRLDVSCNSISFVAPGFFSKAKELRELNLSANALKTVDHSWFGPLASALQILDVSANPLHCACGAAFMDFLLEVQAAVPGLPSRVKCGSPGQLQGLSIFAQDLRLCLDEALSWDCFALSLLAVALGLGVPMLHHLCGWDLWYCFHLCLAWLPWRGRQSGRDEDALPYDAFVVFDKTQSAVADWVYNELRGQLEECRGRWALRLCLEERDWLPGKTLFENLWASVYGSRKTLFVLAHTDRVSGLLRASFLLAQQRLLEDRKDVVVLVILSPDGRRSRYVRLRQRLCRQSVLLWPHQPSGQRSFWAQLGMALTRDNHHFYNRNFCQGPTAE
Method: as §1

Chain of human TLR7 (Q9NYK1 27-1049): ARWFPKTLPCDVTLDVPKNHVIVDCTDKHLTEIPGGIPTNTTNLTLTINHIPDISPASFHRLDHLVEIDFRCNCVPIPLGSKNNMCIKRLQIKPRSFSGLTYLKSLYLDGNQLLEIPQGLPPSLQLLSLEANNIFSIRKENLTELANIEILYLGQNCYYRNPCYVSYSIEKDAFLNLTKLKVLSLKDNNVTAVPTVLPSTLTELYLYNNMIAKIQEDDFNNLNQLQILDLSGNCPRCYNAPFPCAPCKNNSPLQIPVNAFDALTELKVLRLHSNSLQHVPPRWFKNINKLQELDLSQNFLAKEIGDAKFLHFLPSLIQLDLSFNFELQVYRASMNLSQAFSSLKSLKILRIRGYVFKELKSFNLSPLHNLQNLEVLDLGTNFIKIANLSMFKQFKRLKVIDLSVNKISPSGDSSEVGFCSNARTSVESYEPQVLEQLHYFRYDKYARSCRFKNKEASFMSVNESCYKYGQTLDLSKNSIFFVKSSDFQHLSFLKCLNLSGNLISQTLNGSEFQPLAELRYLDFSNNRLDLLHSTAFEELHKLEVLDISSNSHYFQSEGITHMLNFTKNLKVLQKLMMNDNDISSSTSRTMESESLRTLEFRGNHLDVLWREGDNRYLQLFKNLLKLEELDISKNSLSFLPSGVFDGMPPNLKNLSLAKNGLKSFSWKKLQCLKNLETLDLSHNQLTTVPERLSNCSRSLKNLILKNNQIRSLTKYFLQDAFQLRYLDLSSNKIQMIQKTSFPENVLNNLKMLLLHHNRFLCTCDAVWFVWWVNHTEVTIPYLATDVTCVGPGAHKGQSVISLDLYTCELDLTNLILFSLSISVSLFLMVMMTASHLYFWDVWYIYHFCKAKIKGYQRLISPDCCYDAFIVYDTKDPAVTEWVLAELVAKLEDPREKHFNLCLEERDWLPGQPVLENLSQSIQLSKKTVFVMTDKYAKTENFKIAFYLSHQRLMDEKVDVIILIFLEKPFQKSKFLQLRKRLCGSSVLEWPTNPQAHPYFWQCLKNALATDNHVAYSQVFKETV

IC50 (human TLR7)	IC50 (human TLR8)	IC50 (human TLR9)	Structure (SMILES)
71 nM	554 nM	11900 nM	Cc1cc(-c2[nH]c3ccc(C(C)(C)C(=O)N4CC5CNC5C4)cc3c2C(C)C)ccn1 (stereo not drawn) [Example 185, 1-(3,6-diazabicyclo[3.2.0]heptan-3-yl)-2-(3-isopropyl-2-(2-methylpyridin-4-yl)-1H-indol-5-yl)-2-methylpropan-1-one]
171 nM	74 nM	668 nM	Cc1cc(-c2[nH]c3ccc(C(=O)N4CC5CN(C(=O)CN(C)C)CC5C4)cc3c2C(C)C)cc(C)n1 (stereo not drawn) [Example 111, 2-(dimethylamino)-1-(5-(2-(2,6-dimethylpyridin-4-yl)-3-isopropyl-1H-indole-5-carbonyl)hexahydropyrrolo[3,4-c]pyrrol-2(1H)-yl)ethanone]
2.5 nM	1.7 nM	916 nM	COc1cc(-c2[nH]c3ccc(C(=O)NC4CCN(C(C)C)CC4)cc3c2C(C)C)cn2ncnc12 [Example 127, 3-isopropyl-N-(1-isopropylpiperidin-4-yl)-2-(8-methoxy-[1,2,4]triazolo[1,5-a]pyridin-6-yl)-1H-indole-5-carboxamide]
26 nM	64 nM	677 nM	Cc1cc(-c2[nH]c3ccc(C(C)(C)C(=O)NC4CCC5CNCC54)cc3c2C(C)C)ccn1 (stereo not drawn) [Example 144, 2-(3-isopropyl-2-(2-methylpyridin-4-yl)-1H-indol-5-yl)-2-methyl-N-(octahydrocyclopenta[c]pyrrol-4-yl)propanamide]
579 nM	408 nM	> 50000 nM	CCc1c(-c2ccc(OC)c(OC)c2)[nH]c2ccc(C(=O)NCC(C)(C)CO)cc12 [Example 72, 2-(3,4-dimethoxyphenyl)-3-ethyl-N-(3-hydroxy-2,2-dimethylpropyl)-1H-indole-5-carboxamide]
50 nM	0.8 nM	1270 nM	Cc1cc(-c2[nH]c3ccc(C(=O)NC4CCN(C(C)C)CC4)cc3c2C(C)C)ccn1 [Example 113, 3-isopropyl-N-(1-isopropylpiperidin-4-yl)-2-(2-methylpyridin-4-yl)-1H-indole-5-carboxamide]
113 nM	143 nM	2040 nM	Cc1cc(-c2[nH]c3ccc(C(C)(C)C(=O)N4CCC[C@H](N)C4)cc3c2C(C)C)ccn1 [Example 155, (S)-1-(3-aminopiperidin-1-yl)-2-(3-isopropyl-2-(2-methylpyridin-4-yl)-1H-indol-5-yl)-2-methylpropan-1-one]
2610 nM	226 nM	2230 nM	CNCC(=O)N1CC2CN(C(=O)c3ccc4[nH]c(-c5ccnc(C)c5)c(C(C)C)c4c3)CC2C1 (stereo not drawn) [Example 119, 1-(5-(3-isopropyl-2-(2-methylpyridin-4-yl)-1H-indole-5-carbonyl)hexahydropyrrolo[3,4-c]pyrrol-2(1H)-yl)-2-(methylamino)ethanone]
1140 nM	12 nM	26700 nM	CCc1c(-c2ccc(OC)c(OC)c2)[nH]c2ccc(C(=O)N3CCN(CCOC)CC3)cc12 [Example 41, (2-(3,4-dimethoxyphenyl)-3-ethyl-1H-indol-5-yl)(4-(2-methoxyethyl)piperazin-1-yl)methanone]
466 nM	241 nM	2640 nM	Cc1cc(-c2[nH]c3ccc(C(C)C(=O)NCC4CCCNC4)cc3c2C(C)C)ccn1 (stereo not drawn) [Example 213, 2-(3-isopropyl-2-(2-methylpyridin-4-yl)-1H-indol-5-yl)-N-(piperidin-3-ylmethyl)propanamide]
968 nM	274 nM	> 50000 nM	CCc1c(-c2ccc(OC)c(OC)c2)[nH]c2ccc(C(=O)NCCO)cc12 [Example 69, 2-(3,4-dimethoxyphenyl)-3-ethyl-N-(2-hydroxyethyl)-1H-indole-5-carboxamide]
18 nM	2.3 nM	116 nM	Cc1cc(-c2[nH]c3ccc(C(=O)N4CC5CN(C)CC5C4)cc3c2C(C)C)cc(C)n1 (stereo not drawn) [Example 109, (2-(2,6-dimethylpyridin-4-yl)-3-isopropyl-1H-indol-5-yl)(5-methylhexahydropyrrolo[3,4-c]pyrrol-2(1H)-yl)methanone]
29 nM	233 nM	2410 nM	COc1cc(-c2[nH]c3ccc(C(=O)N4CC5CNCC5C4)cc3c2C(C)C)cn2ncnc12 (stereo not drawn) [Example 126, (hexahydropyrrolo[3,4-c]pyrrol-2(1H)-yl)(3-isopropyl-2-(8-methoxy-[1,2,4]triazolo[1,5-a]pyridin-6-yl)-1H-indol-5-yl)methanone]
147 nM	306 nM	1000 nM	Cc1cc(-c2[nH]c3ccc(C(C)(C)C(=O)N4CCCC5(CNC5)C4)cc3c2C(C)C)ccn1 [Example 180, 2-(3-isopropyl-2-(2-methylpyridin-4-yl)-1H-indol-5-yl)-2-methyl-1-(2,6-diazaspiro[3.5]nonan-6-yl)propan-1-one]
1600 nM	122 nM	3330 nM	CC(C)c1c(-c2ccnc3[nH]ncc23)[nH]c2ccc(C(=O)N3CC4CNCC4C3)cc12 (stereo not drawn) [Example 121, (hexahydropyrrolo[3,4-c]pyrrol-2(1H)-yl)(3-isopropyl-2-(1H-pyrazolo[3,4-b]pyridin-4-yl)-1H-indol-5-yl)methanone, HCl]
18 nM	23 nM	> 50000 nM	Cc1cc(-c2[nH]c3ccc(C(=O)N(C)C)cc3c2C(C)C)cc(C)n1 [Example 94, 2-(2,6-dimethylpyridin-4-yl)-3-isopropyl-N,N-dimethyl-1H-indole-5-carboxamide]
362 nM	43 nM	885 nM	CCc1c(-c2ccc(OC)c(OC)c2)[nH]c2ccc(C(=O)N(C)Cc3csc(C4CCNCC4)n3)cc12 [Example 23, 2-(3,4-dimethoxyphenyl)-3-ethyl-N-methyl-N-((2-(piperidin-4-yl)thiazol-4-yl)methyl)-1H-indole-5-carboxamide]
764 nM	132 nM	37400 nM	CCc1c(-c2ccc(OC)c(OC)c2)[nH]c2ccc(C(=O)Nc3cnn(C4COC4)c3)cc12 [Example 21, 2-(3,4-dimethoxyphenyl)-3-ethyl-N-(1-(oxetan-3-yl)-1H-pyrazol-4-yl)-1H-indole-5-carboxamide]
61 nM	859 nM	1660 nM	Cc1cc(-c2[nH]c3ccc(C(C)(C)C(=O)N4CCC5(CCNC5)C4)cc3c2C(C)C)ccn1 (stereo not drawn) [Example 178, 2-(3-isopropyl-2-(2-methylpyridin-4-yl)-1H-indol-5-yl)-2-methyl-1-(2,7-diazaspiro[4.4]nonan-2-yl)propan-1-one]
256 nM	182 nM	1750 nM	Cc1cc(-c2[nH]c3ccc(C(C)C(=O)NC4CCCC(N)C4)cc3c2C(C)C)ccn1 (stereo not drawn) [Example 219, N-(3-aminocyclohexyl)-2-(3-isopropyl-2-(2-methylpyridin-4-yl)-1H-indol-5-yl)propanamide]
1940 nM	412 nM	44800 nM	CCc1c(-c2ccc(OC)c(OC)c2)[nH]c2ccc(C(=O)NCc3ccccn3)cc12 [Example 44, 2-(3,4-dimethoxyphenyl)-3-ethyl-N-(pyridin-2-ylmethyl)-1H-indole-5-carboxamide]
776 nM	160 nM	386 nM	CCc1c(-c2ccnc(C)c2)[nH]c2ccc(C(=O)N3CC4CNCC4C3)cc12 (stereo not drawn) [Example 85, (3-ethyl-2-(2-methylpyridin-4-yl)-1H-indol-5-yl)(hexahydropyrrolo[3,4-c]pyrrol-2(1H)-yl)methanone]
469 nM	28 nM	1570 nM	CCc1c(-c2ccnc(C)c2)[nH]c2ccc(C(=O)N3CC4CN(C(C)C)CC4C3)cc12 (stereo not drawn) [Example 86, (3-ethyl-2-(2-methylpyridin-4-yl)-1H-indol-5-yl)(5-isopropylhexahydropyrrolo[3,4c]pyrrol-2(1H)-yl)methanone]
517 nM	126 nM	686 nM	Cc1cc(-c2[nH]c3ccc(C(C)C(=O)N4CCCC(CCN)C4)cc3c2C(C)C)ccn1 (stereo not drawn) [Example 206, 1-(3-(2-aminoethyl)piperidin-1-yl)-2-(3-isopropyl-2-(2-methylpyridin-4-yl)-1H-indol-5-yl)propan-1-one]
493 nM	381 nM	> 50000 nM	CCc1c(-c2ccc(OC)c(OC)c2)[nH]c2ccc(C(=O)N3CCNC(=O)C3)cc12 [Example 62, 4-(2-(3,4-dimethoxyphenyl)-3-ethyl-1H-indole-5-carbonyl)piperazin-2-one]
418 nM	87 nM	1920 nM	CCc1c(-c2ccc(OC)c(OC)c2)[nH]c2ccc(C(=O)N3CC4CN(C(C)C)CC4C3)cc12 (stereo not drawn) [Example 81, (2-(3,4-dimethoxyphenyl)-3-ethyl-1H-indol-5-yl)(5-isopropylhexahydropyrrolo[3,4-c]pyrrol-2(1H)-yl)methanone]
1120 nM	897 nM	16800 nM	CCc1c(-c2ccc(OC)c(OC)c2)[nH]c2ccc(C(=O)N3CCCC(C(=O)N(CC)CC)C3)cc12 (stereo not drawn) [Example 33, 1-(2-(3,4-dimethoxyphenyl)-3-ethyl-1H-indole-5-carbonyl)-N,N-diethylpiperidine-3-carboxamide]
63 nM	36 nM	2900 nM	Cc1cc(-c2[nH]c3ccc(C(C)(C)C(=O)NC4CCC(N)CC4)cc3c2C(C)C)ccn1 (stereo not drawn) [Example 167, N-(4-aminocyclohexyl)-2-(3-isopropyl-2-(2-methylpyridin-4-yl)-1H-indol-5-yl)-2-methylpropanamide]
25 nM	4 nM	4340 nM	CCc1c(-c2ccc(OC)c(OC)c2)[nH]c2ccc(C(=O)N(CC)CCN(C)C)cc12 [Example 73, 2-(3,4-dimethoxyphenyl)-N-(2-(dimethylamino)ethyl)-N,3-diethyl-1H-indole-5-carboxamide]
